From patent US10829520B2, “Beta-hairpin peptidomimetics” (POLYPHOR AG, priority 2015, dated 2020)
*1 amine or outer side, *2 acyl side, *3 side chain or, on linkers, in order; H or OH if unused. Where a SMILES comes first, the peptide text is derived from it. Bridges are numbered along the chain shown (N, C = ends). Roman numbers before positions name the chains, in order. [ ]: non-standard residue; d: D form. X1 = CC(C)NC[C@H](N[*:1])C(=O)[*:2]; Cha = N[C@@H](CC1CCCCC1)C(=O)O; Tle = CC(C)(C)[C@H](N)C(=O)O; dDab = NCC[C@@H](N)C(=O)O; Nle = CCCC[C@H](N)C(=O)O; Orn = NCCC[C@H](N)C(=O)O; Dab = NCC[C@H](N)C(=O)O; dAze = O=C(O)[C@H]1CCN1

Legend:
Type in all cases: cell-based
[1] = tested on: Pseudomonas aeruginosa ATCC 27853; conditions: ATCC 27853
Procedure, shortened: (§1)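 Antibacterial activity is measured as MIC (μg/mL) by standard CLSI microdilution. Inocula of about 10^6 CFU/mL in MH-II broth meet two-fold peptide dilutions in medium with 0.002% Polysorbate 80, and growth is scored visually after 18-20 hours at 35° C.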

[2] = tested on: Acinetobacter baumannii DSM 30008; conditions: DSM 30008
Procedure, shortened: as §1

Escherichia coli 926415 = conditions: 926415
[3] = tested on: Acinetobacter baumannii 872842; conditions: 872842
[4] = tested on: Klebsiella pneumoniae 968733; conditions: 968733
[5] = tested on: Klebsiella pneumoniae SSI #3010; conditions: SSI #3010
Procedure, shortened: as §1

[6] = tested on: Escherichia coli ATCC 25922; conditions: ATCC 25922
Procedure, shortened: as §1

[7] = tested on: human red blood cells (hRBC); experiment: Hemolysis of human red blood cells; conditions: red cells of human, 1 h
Procedure, shortened: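 Percent hemolysis = OD540 of peptide-treated supernatant relative to the 2.5% Triton X-100 (100%) control, PBS containing 0.001% acetic acid defining 0%. Peptides tested at 100 μg/mL against 20% (v/v) washed human RBC, 1 h, 37 °C, 300 rpm.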

| SMILES | Pseudomonas aeruginosa ATCC 27853 MIC [1] | Acinetobacter baumannii DSM 30008 MIC [2] | Escherichia coli 926415 MIC (Escherichia coli 926415) | Acinetobacter baumannii 872842 MIC [3] | Klebsiella pneumoniae 968733 MIC [4] | Klebsiella pneumoniae SSI #3010 MIC [5] | Escherichia coli ATCC 25922 MIC [6] | Hemolysis at 100 μg/mL [7]; 100 | Hemolysis at 100 μg/mL ([7]; 100 μg/mL) |
| --- | --- | --- | --- | --- | --- | --- | --- | --- | --- |
| CC(C)C[C@@H]1NC(=O)[C@@H](CC(C)C)NC(=O)[C@H](CCN)NC(=O)[C@@H](NC(=O)[C@H](CCN)NC(=O)[C@@H](NC(=O)[C@H](CCN)NC(=O)CC[C@@H]2NC(=O)[C@H](CCN)NC(=O)[C@H](Cc3ccc(O)cc3)NC(=O)[C@@H]3CCNC(=O)C[C@H](NC(=O)[C@H](C(C)(C)C)NC(=O)[C@H](CCN)NC(=O)[C@H](Cc4c[nH]c5ccccc45)NC(=O)[C@H](CCN)NC(=O)[C@@H](CCN)NC2=O)C(=O)N[C@@H]([C@@H](C)O)C(=O)N2CC[C@@H]2C(=O)N2CCC[C@H]2C(=O)N[C@@H](C(C)C)C(=O)N3)[C@@H](C)O)CCNC(=O)[C@H]([C@@H](C)O)NC(=O)[C@H](CCN)NC(=O)[C@H](CCN)NC1=O [Ex. 87] (I: cyclo(W[Dab][Tle]DT[dAze]PV[Dab]Y[Dab]E[dDab][Dab]) / II: [Dab]T[Dab][Dab][Dab][dL]L[Dab][Dab]T; lactam I:4-I:9, II:4-II:C; amide I:12-II:N) | 0.25 µg/mL | 0.25 µg/mL | 0.125 µg/mL | 0.5 µg/mL | 0.25 µg/mL | 0.25 µg/mL | 0.125 µg/mL | <1% | – |
| CCCC[C@@H]1NC(=O)[C@@H]2CCCN2C(=O)[C@H]2CCCN2C(=O)[C@H](CO)NC(=O)[C@H](C)NC(=O)[C@H](C(C)(C)C)NC(=O)[C@@H](NC(=O)[C@H](Cc2c[nH]c3ccccc23)NC(C)=O)CSSC[C@@H](C(=O)N[C@@H](CCN)C(=O)NCC(=O)N[C@@H](CCN)C(=O)N[C@H]2CCNC(=O)[C@H]([C@@H](C)O)NC(=O)[C@H](CCN)NC(=O)[C@H](CCN)NC(=O)[C@H](CC(C)C)NC(=O)[C@@H](Cc3ccccc3)NC(=O)[C@H](CCN)NC2=O)NC(=O)[C@H](Cc2ccc(O)cc2)NC(=O)[C@H](CO)NC1=O [Ex. 22] (Ac-WC[Tle]AS[dP]P[Nle]SYC[Dab]G[Dab][Dab][Dab][dF]L[Dab][Dab]T; disulfide 2-11; lactam 15-C) | 0.25 µg/mL | 0.5 µg/mL | 0.5 µg/mL | 0.125 µg/mL | 1 µg/mL | 0.25 µg/mL | 0.125 µg/mL | – | <1% |
| CC(=O)N[C@@H](Cc1c[nH]c2ccccc12)C(=O)N[C@H]1CSSC[C@@H](C(=O)N[C@@H](CCCN)C(=O)N[C@H](C(=O)N[C@@H](CCN)C(=O)N[C@@H](CCN)C(=O)N[C@H]2CCNC(=O)[C@H]([C@@H](C)O)NC(=O)[C@H](CCN)NC(=O)[C@H](CCN)NC(=O)[C@H](CC(C)C)NC(=O)[C@@H](Cc3ccccc3)NC(=O)[C@H](CCN)NC2=O)[C@@H](C)O)NC(=O)[C@H](CC2CCCCC2)NC(=O)[C@H](CNC(C)C)NC(=O)[C@H](Cc2c[nH]c3ccccc23)NC(=O)[C@@H]2CCCN2C(=O)[C@H]2CCCN2C(=O)[C@H](CO)NC(=O)[C@H](C)NC(=O)[C@H](C(C)(C)C)NC1=O [Ex. 139] (Ac-WC[Tle]AS[dP]PW[X1][Cha]C[Orn]T[Dab][Dab][Dab][Dab][dF]L[Dab][Dab]T; disulfide 2-11; lactam 16-C) | 2 µg/mL | 1 µg/mL | 1 µg/mL | 2 µg/mL | 4 µg/mL | 2 µg/mL | 2 µg/mL | – | 4% |
| CC(C)C[C@@H]1NC(=O)[C@H](CO)NC(=O)[C@H](Cc2ccc(O)cc2)NC(=O)[C@@H]2CCCN2C(=O)[C@H]2CCCN2C(=O)[C@H]([C@@H](C)O)NC(=O)[C@H](C)NC(=O)[C@H](Cc2ccc(O)cc2)NC(=O)[C@@H](NC(=O)[C@@H](N)CC(C)C)CSSC[C@@H](C(=O)NCC(=O)N[C@@H](CCN)C(=O)N[C@H](C(=O)N[C@@H](CCN)C(=O)N[C@H]2CCNC(=O)[C@H]([C@@H](C)O)NC(=O)[C@H](CCN)NC(=O)[C@H](CCN)NC(=O)[C@H](CC(C)C)NC(=O)[C@@H](CC(C)C)NC(=O)[C@H](CCN)NC2=O)[C@@H](C)O)NC1=O [Ex. 158] (H-LCYAT[dP]PYSLCG[Dab]T[Dab][Dab][Dab][dL]L[Dab][Dab]T; disulfide 2-11; lactam 16-C) | 0.5 µg/mL | 0.25 µg/mL | 4 µg/mL | 0.25 µg/mL | 8 µg/mL | 0.125 µg/mL | 0.125 µg/mL | – | <1% |
